Measured values reported in article PMC8286840, “Identifying SARS-CoV-2 antiviral compounds by screening for small molecule inhibitors of Nsp3 papain-like protease” (Biochemical Journal, 2021).
Structures can show the parent of a compound that is named as a salt. Where two headings read alike, the source gives them in different places. Where a SMILES comes first, the peptide text is derived from it. Where no end group is shown, it is not given here. The star is where a group is joined. Cbz = O=C(OCc1ccccc1)*

Tests used:
[1] = target: T1, SARS-CoV-2 PLpro (nsp3 1564–1878) (Severe acute respiratory syndrome coronavirus 2, UniProt P0DTD1); assay: biochemical; parameters: FRET-quenched peptide (Pro3) cleavage by PLpro, 10 min pre-incubation, slope over 20 min, normalised to no-compound control; details: high concentration screen, read-out: % of control remaining
[2] = target: T1, SARS-CoV-2 PLpro (nsp3 1564–1878); assay: biochemical; parameters: FRET-quenched peptide (Pro3) cleavage by PLpro, 10 min pre-incubation, slope over 20 min, normalised to no-compound control; details: low concentration screen, read-out: % of control remaining

COc1cccc(-c2cc(=O)c3ccccc3o2)c1N [PD 98059 - 2-(2-Amino-3-methoxyphenyl)-4H-1-benzopyran-4-one]
remaining activity at 3.75 µM ([1]; Well no.=2348): 96.8% | remaining activity at 1.25 µM ([2]; Well no.=2348): 98.4%

O=C1NC(=O)c2c1c1c3ccccc3[nH]c1c1[nH]c3cc(Br)ccc3c21 [Cdk4 Inhibitor]
remaining activity at 3.75 µM ([1]; Well no.=2404): 99.9% | remaining activity at 1.25 µM ([2]; Well no.=2404): 99.9%

Ac-LKKTETQ [TB500]
remaining activity at 3.75 µM ([1]; Well no.=7646): 90.2% | remaining activity at 1.25 µM ([2]; Well no.=7646): 92.9%

C[S+]([O-])c1ccc(-c2nc(-c3ccc(F)cc3)c(-c3ccncc3)[nH]2)cc1 (stereo not drawn) [SB 203580]
remaining activity at 3.75 µM ([1]; Well no.=2644): 91.7% | remaining activity at 1.25 µM ([2]; Well no.=2644): 91.3%

O=C(Cc1ccc(Cl)c(Cl)c1)OCCN1CCCC1 [AC 915 oxalate]
remaining activity at 3.75 µM ([1]; Well no.=61): 102% | remaining activity at 1.25 µM ([2]; Well no.=61): 104%

Cc1cc2c(s1)Nc1ccccc1N=C2N1CCN(C)CC1 [Olanzapine]
remaining activity at 3.75 µM ([1]; Well no.=1828): 95.2% | remaining activity at 3.75 µM ([1]; Well no.=8193): 111% | remaining activity at 1.25 µM ([2]; Well no.=1828): 93.3% | remaining activity at 1.25 µM ([2]; Well no.=8193): 106%

CN(C)c1nc2c(ncn2[C@@H]2O[C@H](CO)[C@@H](O)[C@H]2O)c(=O)[nH]1 [N2,N2-Dimethylguanosine]
remaining activity at 3.75 µM ([1]; Well no.=6969): 106% | remaining activity at 3.75 µM ([1]; Well no.=7820): 104% | remaining activity at 1.25 µM ([2]; Well no.=6969): 105% | remaining activity at 1.25 µM ([2]; Well no.=7820): 104%

Cn1ccnc1S [Methimazole]
remaining activity at 3.75 µM ([1]; Well no.=1961): 94.6% | remaining activity at 1.25 µM ([2]; Well no.=1961): 92.6%

C[C@@H](c1nc(-c2ccc(C#N)cc2)cs1)[C@](O)(Cn1cncn1)c1ccc(F)cc1F [4-{2-[(1R,2R)-2-(2,4-difluorophenyl)-2-hydroxy-1-methyl-3-(1H-1,2,4-triazol-1-yl)propyl]-1,3-thiazol-4-yl}benzonitrile]
remaining activity at 3.75 µM ([1]; Well no.=5644): 92.4% | remaining activity at 1.25 µM ([2]; Well no.=5644): 90.9%

CC(C)C(C(=O)O)N1C(=O)/C(=C\c2ccc(Br)cc2)SC1=S (stereo not drawn) [BH3I-1]
remaining activity at 3.75 µM ([1]; Well no.=6586): 99.7% | remaining activity at 1.25 µM ([2]; Well no.=6586): 98.6%

C#C[C@]1(OC(C)=O)CC[C@H]2[C@@H]3CCC4=CC(=O)CC[C@@H]4[C@H]3CC[C@@]21C [Norethindrone acetate]
remaining activity at 3.75 µM ([1]; Well no.=5895): 101% | remaining activity at 1.25 µM ([2]; Well no.=5895): 99.8%

Nc1c2c(nc3ccccc13)CCCC2O (stereo not drawn) [Hydroxytacrine maleate]
remaining activity at 3.75 µM ([1]; Well no.=514): 101% | remaining activity at 1.25 µM ([2]; Well no.=514): 102%

CNCC(=O)c1ccc(O)c(O)c1 [Adrenalone (hydrochloride)]
remaining activity at 3.75 µM ([1]; Well no.=7433): 103% | remaining activity at 1.25 µM ([2]; Well no.=7433): 103%

OC[C@H]1O[C@@H](n2cnc3c(NCCc4c[nH]c5ccccc45)ncnc32)[C@H](O)[C@@H]1O [A2AR-agonist-1]
remaining activity at 3.75 µM ([1]; Well no.=8653): 105% | remaining activity at 1.25 µM ([2]; Well no.=8653): 105%

COC(=O)/C=C/c1cc(O)ccc1O [2,5-Dihydroxycinnamic acid methyl ester]
remaining activity at 3.75 µM ([1]; Well no.=495): 106% | remaining activity at 1.25 µM ([2]; Well no.=495): 103%

CC(C)[C@H](NC(=O)OCc1ccccc1)C(=O)N[C@H](C=O)Cc1ccccc1 [MDL 28170] (Cbz-Val-Phe-aldehyde)
remaining activity at 3.75 µM ([1]; Well no.=790): 105% | remaining activity at 1.25 µM ([2]; Well no.=790): 106%

N=C(N)NCCC[C@H](N)C(=O)O [L-Arginine HCl]
remaining activity at 3.75 µM ([1]; Well no.=4987): 100% | remaining activity at 1.25 µM ([2]; Well no.=4987): 100%

C[C@H](CCC(=O)O)[C@H]1CC[C@H]2[C@@H]3[C@H](O)C[C@@H]4C[C@H](O)CC[C@]4(C)[C@H]3C[C@H](O)[C@]12C [Cholic acid]
remaining activity at 3.75 µM ([1]; Well no.=6201): 105% | remaining activity at 3.75 µM ([1]; Well no.=8202): 94.8% | remaining activity at 1.25 µM ([2]; Well no.=6201): 105% | remaining activity at 1.25 µM ([2]; Well no.=8202): 96.6%

Nc1ccc(S(=O)(=O)Nc2ccc(Cl)nn2)cc1 [Sulfachloropyridazine]
remaining activity at 3.75 µM ([1]; Well no.=8360): 92.1% | remaining activity at 1.25 µM ([2]; Well no.=8360): 93.9%

CC(=O)N[C@@H](CC(C)C)C(=O)O [N-Acetyl-L-leucine]
remaining activity at 3.75 µM ([1]; Well no.=7596): 98.8% | remaining activity at 1.25 µM ([2]; Well no.=7596): 97%

Cc1ccc(C(=O)N(CCCN)[C@@H](c2nc3cc(Cl)ccc3c(=O)n2Cc2ccccc2)C(C)C)cc1 [Ispinesib (SB-715992)]
remaining activity at 3.75 µM ([1]; Well no.=5243): 92.3% | remaining activity at 1.25 µM ([2]; Well no.=5243): 94.6%
